Read-outs that look alike come from different tables or passages of the source.
Legend:
HIV = test: Assay for inhibition of HIV replication (spread assay): acute HIV infection of T-lymphoid cells; assay type: cell-based
Description: Assays for the inhibition of acute HIV infection of T-lymphoid cells were conducted in accordance with Vacca, J. P. et al., Proc. Natl. Acad. Sci. USA 1994, 91: 4096. […] For example, the compounds of Examples 1 to 3 were tested in this assay and found to have the following IC95 values: […]

[1] = target: T1, recombinant integrase (HIV integrase) (Human immunodeficiency virus type 1 group M subtype B, UniProt P04585); test: HIV integrase assay: strand transfer catalyzed by recombinant integrase; assay type: biochemical
T1 construct: Strand Transfer Catalyzed by Recombinant Integrase
Description: Assays for the strand transfer activity of integrase were conducted in accordance with WO 02/30930 for recombinant integrase. […] For example, the compounds prepared in Examples 1 to 3 were tested in the integrase assay and found to have the following IC50 values:
Further description on conducting the assay using preassembled complexes is found in Wolfe, A. L. et al., J. Virol. 1996, 70: 1424-1432, Hazuda et al., J. Virol. 1997, 71: 7005-7011; Hazuda et al., Drug Design and Discovery 1997, 15: 17-24; and Hazuda et al., Science 2000, 287: 646-650.

[2] = IC50 (inhibition of strand transfer activity)

SMILES	IC95 in the presence of 10% FBS (HIV)	IC50 [1, 2]	IC50 ([1]; read-out: IC50 (inhibition of strand transfer activity))
CC1CCCN(C)C(=O)c2c3c(c(O)c(=O)n21)C(=O)N(Cc1ccc(F)c(Cl)c1)CC3 (single isomer, unassigned) [Ex. 3 - Diasteromer A-3, 11-(3-Chloro-4-fluorobenzyl)-9-hydroxy-2,6-dimethyl-3,4,5,6,12,13-hexahydro-2H[1,4]diazocino[2,1-a]-2,6-naphthyridine-1,8,10(11H)-trione]	125 nM	17 nM	
CC1CCCN(C)C(=O)c2c3c(c(O)c(=O)n21)C(=O)N(Cc1ccc(F)c(Cl)c1)CC3 (single isomer, unassigned) [Ex. 3 - Diasteromer C-3, 11-(3-Chloro-4-fluorobenzyl)-9-hydroxy-2,6-dimethyl-3,4,5,6,12,13-hexahydro-2H[1,4]diazocino[2,1-a]-2,6-naphthyridine-1,8,10(11H)-trione]	250 nM	8 nM	
CC1CCCN(C)C(=O)c2c3c(c(O)c(=O)n21)C(=O)N(Cc1ccc(F)c(Cl)c1)CC3 (single isomer, unassigned) [Ex. 3 - Diasteromer B-3, 11-(3-Chloro-4-fluorobenzyl)-9-hydroxy-2,6-dimethyl-3,4,5,6,12,13-hexahydro-2H[1,4]diazocino[2,1-a]-2,6-naphthyridine-1,8,10(11H)-trione]	11 nM	17 nM	
CN1C[C@H](O)C(C)(C)Cn2c(c3c(c(O)c2=O)C(=O)N(Cc2ccc(F)c(Cl)c2)CC3)C1=O (single isomer, unassigned) [Ex. 1 - Isomer B-1]	31 nM	21 nM	
CC1CCCN(C)C(=O)c2c3c(c(O)c(=O)n21)C(=O)N(Cc1ccc(F)c(Cl)c1)CC3 (single isomer, unassigned) [Ex. 3 - Diasteromer D-3, 11-(3-Chloro-4-fluorobenzyl)-9-hydroxy-2,6-dimethyl-3,4,5,6,12,13-hexahydro-2H[1,4]diazocino[2,1-a]-2,6-naphthyridine-1,8,10(11H)-trione]	8 nM	8 nM	
CN1C[C@H](O)C(C)(C)Cn2c(c3c(c(O)c2=O)C(=O)N(Cc2ccc(F)c(Cl)c2)CC3)C1=O (single isomer, unassigned) [Ex. 1 - Isomer A-1]	15 nM	14 nM	
CN1C[C@@H](O)C(C)(C)Cn2c(c3c(c(O)c2=O)C(=O)N(Cc2ccc(F)c(Cl)c2)CC3)C1=O (single isomer, unassigned) [Ex. 2]	31 nM		3 nM
